# In patent US4410516A, “1-N(αHydroxy-ω-aminoalkanoyl) derivatives of 5,3',4'-trideoxy- or 5,3', 4'-trideoxy-6'-N- methyl- or 5, 3', 4',6"-tetradeoxykannamyci B and production thereof” (Zaidan Hojin Biseibutsu Kagaku Kenkyu Kai, priority 1981, dated 1983):
# Like-named read-outs stand apart in the source and are kept apart here.
# Columns and labels:
# [1] = test system: Staphylococcus aureus 209P; test: Minimum inhibitory concentration, serial dilution on nutrient agar; assay type: cell-based; settings: 37° C., 18 hours incubation
# [2] = test system: Proteus rettgeri GN311; test: as above; assay type: cell-based; settings: Providencia rettgeri, 37° C., 18 hours incubation
# [3] = test system: Providencia Pv 16; test: as above; assay type: cell-based; settings: PV16, 37° C., 18 hours incubation
# [4] = test system: Staphylococcus aureus Smith; test: as above; assay type: cell-based; settings: 37° C., 18 hours incubation
# [5] = test system: Salmonella typhi T-63; test: as above; assay type: cell-based; settings: Salmonella enterica, 18 h
# [6] = test system: Escherichia coli K-12 LA 290 R64; test: as above; assay type: cell-based; settings: K12LA290R64, 18 h
# [7] = test system: Pseudomonas aeruginosa A3; test: as above; assay type: cell-based; settings: 37° C., 18 hours incubation
# [8] = test system: Providencia 2991; test: as above; assay type: cell-based; settings: 37° C., 18 hours incubation
# [9] = test system: Proteus rettgeri GN466; test: as above; assay type: cell-based; settings: Providencia rettgeri
# [10] = test system: Pseudomonas aeruginosa ROS134/PU21; test: as above; assay type: cell-based; settings: ROS134/PU21, 18 h
# [11] = test system: Escherichia coli K-12 R5; test: as above; assay type: cell-based; settings: K12R5, 18 h
# [12] = Acute toxicity by intravenous injection in mice; settings: mouse, in vivo
# [13] = test system: Escherichia coli K-12 ML 1410; test: Minimum inhibitory concentration, serial dilution on nutrient agar; assay type: cell-based
# [14] = test system: Escherichia coli K-12 LA 290 R56; test: as above; assay type: cell-based; settings: K12LA290R56, 18 h
# [15] = test system: Pseudomonas aeruginosa K-Ps102; test: as above; assay type: cell-based
# [16] = test system: Shigella dysenteriae JS 11910; test: as above; assay type: cell-based; settings: JS11910, 18 h
# [17] = test system: Pseudomonas aeruginosa H9; test: as above; assay type: cell-based
# [18] = test system: Klebsiella pneumoniae PCI 602; test: as above; assay type: cell-based
# [19] = test system: Staphylococcus epidermidis 109; test: as above; assay type: cell-based; settings: Staphylococcus epidermidis, 109; nutrient agar, 37° C., 18 hours incubation; read-out: MIC
# [20] = test system: Serratia SOU; test: as above; assay type: cell-based; settings: 37° C., 18 hours incubation
# [21] = test system: Pseudomonas aeruginosa 21-75; test: as above; assay type: cell-based; settings: 2175, 37° C., 18 hours incubation
# [22] = test system: Serratia 4; test: as above; assay type: cell-based; settings: 37° C., 18 hours incubation
# [23] = test system: Proteus vulgaris OX19; test: as above; assay type: cell-based; settings: 37° C., 18 hours incubation
# [24] = test system: Pseudomonas aeruginosa GN315; test: as above; assay type: cell-based
# [25] = test system: Bacillus subtilis NRRL B-558; test: as above; assay type: cell-based; settings: NRRLB558, 37° C., 18 hours incubation
# [26] = test system: Pseudomonas aeruginosa B-13; test: as above; assay type: cell-based; settings: B13, 37° C., 18 hours incubation
# [27] = test system: Escherichia coli K-12 ML 1410 R81; test: as above; assay type: cell-based; settings: 18 h
# [28] = test system: bacteria; settings: in words, earlier work / other filings; cited from earlier work
# [29] = PCI602, nutrient agar, 37° C., 18 hours incubation, read-out: MIC
# [30] = GN315, nutrient agar, 37° C., 18 hours incubation, read-out: MIC
# [31] = GN466, nutrient agar, 37° C., 18 hours incubation, read-out: MIC
# [32] = KPS102, nutrient agar, 37° C., 18 hours incubation, read-out: MIC
SMILES,MIC [1],MIC [2],MIC [3],MIC [4],MIC [5],MIC [6],MIC [7],MIC [8],MIC [10],MIC [11],LD50 [12],MIC [14],MIC [16],MIC [19],MIC [20],MIC [21],MIC [22],MIC [23],MIC [25],MIC [26],further results
"C[C@H]1O[C@H](O[C@@H]2C[C@H](O[C@H]3O[C@H](CN)CC[C@H]3N)[C@@H](N)C[C@H]2NC(=O)[C@@H](O)CCN)[C@H](O)[C@@H](N)[C@@H]1O [AHB-tetradeoxyKMB, 1-N-[(S)-4-amino-2-hydroxybutyryl]-5,3',4',6""-tetradeoxykanamycin B]",< 0.2 µg/mL,25 µg/mL,25 µg/mL,< 0.2 µg/mL,25 µg/mL,0.78 µg/mL,0.78 µg/mL,25 µg/mL,100 µg/mL,50 µg/mL,25 to 50 mg/kg,0.39 µg/mL,1.56 µg/mL,0.78 µg/mL,100 µg/mL,12.5 µg/mL,25 µg/mL,0.39 µg/mL,< 0.2 µg/mL,12.5 µg/mL,"MIC ([9]; GN466, 18 h): 1.56 µg/mL; MIC ([13]; K12ML1410, 18 h): 1.56 µg/mL; MIC ([15]; KPS102, 18 h): 3.13 µg/mL; MIC ([17]; H9, 18 h): 3.13 µg/mL; MIC [18, 29]: 0.78 µg/mL; MIC [24, 30]: 100 µg/mL"
"CNC[C@@H]1CC[C@@H](N)[C@@H](O[C@H]2C[C@@H](O[C@H]3O[C@H](CO)[C@@H](O)[C@H](N)[C@H]3O)[C@H](NC(=O)[C@@H](O)CCN)C[C@@H]2N)O1 [AHB-trideoxyMKMB, 1-N-[(S)-4-amino-2-hydroxybutyryl]-5,3',4'-trideoxy-6'-N-methylkanamycin B]",< 0.2 µg/mL,50 µg/mL,6.25 µg/mL,< 0.2 µg/mL,1.56 µg/mL,1.56 µg/mL,,12.5 µg/mL,50 µg/mL,3.13 µg/mL,50 to 100 mg/kg,0.78 µg/mL,1.56 µg/mL,< 0.2 µg/mL,25 µg/mL,12.5 µg/mL,6.25 µg/mL,< 0.2 µg/mL,< 0.2 µg/mL,12.5 µg/mL,"MIC [9, 31]: 6.25 µg/mL; MIC [27]: 1.56 µg/mL; MIC ([13]; K12ML1410, 18 h): 1.56 µg/mL; MIC ([15]; KPS102, 18 h): 1.56 µg/mL; MIC ([17]; H9, 18 h): 1.56 µg/mL; MIC [18, 29]: 0.78 µg/mL; MIC ([24]; GN315, 18 h): 3.13 µg/mL"
"NCC(O)C(=O)N[C@@H]1C[C@H](N)[C@@H](O[C@H]2O[C@H](CN)CC[C@H]2N)C[C@H]1O[C@H]1O[C@H](CO)[C@@H](O)[C@H](N)[C@H]1O (stereo partly drawn) [AHP-trideoxyKMB, 1-N-[(RS)-3-amino-2-hydroxypropionyl]-5,3',4'-trideoxykanamycin B]",< 0.2 µg/mL,25 µg/mL,25 µg/mL,< 0.2 µg/mL,50 µg/mL,1.56 µg/mL,0.78 µg/mL,25 µg/mL,> 100 µg/mL,100 µg/mL,25 to 50 mg/kg,1.56 µg/mL,6.25 µg/mL,0.78 µg/mL,> 100 µg/mL,12.5 µg/mL,25 µg/mL,0.78 µg/mL,< 0.2 µg/mL,12.5 µg/mL,"MIC [9, 31]: 3.13 µg/mL; MIC ([13]; K12ML1410, nutrient agar, 37° C., 18 hours incubation, read-out: MIC): 1.56 µg/mL; MIC [15, 32]: 3.13 µg/mL; MIC ([17]; H9, nutrient agar, 37° C., 18 hours incubation, read-out: MIC): 3.13 µg/mL; MIC [18, 29]: 1.56 µg/mL; MIC [24, 30]: 50 µg/mL"
"NCC[C@H](O)C(=O)N[C@@H]1C[C@H](N)[C@@H](O[C@H]2O[C@H](CN)CC[C@H]2N)[C@H](O)[C@H]1O[C@H]1O[C@H](CO)[C@@H](O)[C@H](N)[C@H]1O [Habekacin, 1-N-[(S)-4-amino-2-hydroxybutyryl]-3',4'-dideoxykanamycin B, reference compound]",0.39 µg/mL,50 µg/mL,25 µg/mL,< 0.2 µg/mL,1.56 µg/mL,3.13 µg/mL,3.13 µg/mL,50 µg/mL,> 100 µg/mL,100 µg/mL,,3.13 µg/mL,12.5 µg/mL,0.78 µg/mL,> 100 µg/mL,25 µg/mL,50 µg/mL,0.78 µg/mL,< 0.2 µg/mL,25 µg/mL,"antibacterial activity [28]: effective against dibekacin-resistant bacteria; MIC ([9]; GN466, 18 h): 12.5 µg/mL; MIC ([13]; K12ML1410, 18 h): 6.25 µg/mL; MIC [15, 32]: 3.13 µg/mL; MIC ([17]; H9, 18 h): 6.25 µg/mL; MIC ([18]; PCI602, 18 h): 1.56 µg/mL; MIC ([24]; GN315, 18 h): 6.25 µg/mL"
